Tests used:
[1] = tested on: SGLT in the kidney; settings: cited from earlier work
[2] = molecular target: T1, SGLT-2 in the kidney (Homo sapiens, UniProt P31639); settings: compared with T-1095; cited from earlier work
T1 sequence (P31639 1-672): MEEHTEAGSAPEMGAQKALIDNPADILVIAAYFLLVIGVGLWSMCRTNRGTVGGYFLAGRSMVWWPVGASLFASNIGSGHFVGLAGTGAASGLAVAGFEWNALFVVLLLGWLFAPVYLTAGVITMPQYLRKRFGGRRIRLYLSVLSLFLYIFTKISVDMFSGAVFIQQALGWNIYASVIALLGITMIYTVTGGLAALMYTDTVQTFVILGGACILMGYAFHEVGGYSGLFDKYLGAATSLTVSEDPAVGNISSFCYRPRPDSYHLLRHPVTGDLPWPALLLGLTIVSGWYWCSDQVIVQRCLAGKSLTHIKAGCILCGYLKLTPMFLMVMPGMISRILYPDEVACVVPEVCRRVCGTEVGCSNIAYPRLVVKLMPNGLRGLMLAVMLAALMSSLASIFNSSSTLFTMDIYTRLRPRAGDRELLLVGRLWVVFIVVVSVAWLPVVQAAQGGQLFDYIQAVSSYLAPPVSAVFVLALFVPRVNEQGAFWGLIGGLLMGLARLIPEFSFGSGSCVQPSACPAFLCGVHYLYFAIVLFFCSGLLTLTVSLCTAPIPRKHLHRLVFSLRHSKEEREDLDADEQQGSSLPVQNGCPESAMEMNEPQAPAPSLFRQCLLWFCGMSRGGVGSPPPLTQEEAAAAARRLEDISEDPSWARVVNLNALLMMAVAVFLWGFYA

[3] = tested on: female db/db mice; assay: Example 1: 11 day oral dosing of rosiglitazone +/− T-1095 in db/db mice; format: in vivo; settings: for Glucose / Insulin / TG: mean; for Body Weight Change / Liver Weight: −T1095, mean
Experimental: (§1) Mice (n=8 animals/group) received the test compounds or vehicle by oral gavage in a volume of 10 ml/kg of body weight. Body weight was recorded on day 1, prior to dosing, and days 4, 8 and 11. Eighteen hours after the final dose, mice were weighed and anesthetized with CO2/O2 (70:30). Mice were then bled by retro-orbital sinus puncture into 2 mL heparinized polypropylene tubes on ice.
Plasma samples were then assayed for glucose, insulin, and triglycerides using Trinder reagent (Sigma Diagnostics), Elisa (Alpco) and GPO-Trinder (Sigma Diagnostics), respectively.
(§2) Livers were excised, weighed and frozen. […] Heart weight can be measured in an analogous manner.

[4] = tested on: female db/db mice; assay: Example 2: 11 day oral dosing of T-1095 +/− rosiglitazone in db/db mice; format: in vivo; settings: Rosi 10 mpk, mean
Experimental: as §1, with “ice. Plasma samples were then assayed for glucose, insulin, and triglycerides using Trinder reagent (Sigma Diagnostics), Elisa (Alpco) and GPO-Trinder (Sigma Diagnostics), respectively. Livers and hearts were excised, weighed and frozen.” for “ice.”
as §2

## Cc1cc(O)c(C(=O)CCc2ccc3occc3c2)c(OC2OC(CO)C(O)C(O)C2O)c1 (stereo not shown) [T-1095A]
[1]
  inhibition of SGLT in the kidney: selective and potent inhibitor of SGLT in the kidney
[2]
  inhibition of SGLT-2 in the kidney: also a better substrate for the inhibition of SGLT-2 in the kidney

## CN(CCOc1ccc(CC2SC(=O)NC2=O)cc1)c1ccccn1 (stereo not shown) [Rosi, 5-((4-(2-(methyl-2-pyridinylamino)ethoxy)phenyl)methyl)-2,4-thiazolidinedione]
[3]; 0.1 mpk Rosi
  Glucose: ***388.13 mg/dL
  Insulin: 65.75 ng/mL
  TG: ***188.38 mg/dL
[3]; 1 mpk Rosi
  Glucose: ***246.71 mg/dL
  Insulin: ***25.43 ng/ml
  TG: ***199.43 mg/dL
[3]; 10 mpk Rosi
  Glucose: ***321.63 mg/dL
  Insulin: ***31.63 ng/ml
  TG: ***136.25 mg/dL
[3]; Rosi 0.1 mpk
  Body Weight Change: 4.34 g
  Liver Weight: 2.31 g
[3]; Rosi 1 mpk
  Body Weight Change: 2.60 g
  Liver Weight: 2.32 g
[3]; Rosi 10 mpk
  Body Weight Change: 4.76 g
  Liver Weight: 2.36 g
[4]
  Body Weight Change: 3.9 g
  Glucose: **244 mg/dL
  Insulin: *7.4 ng/ml
  Liver Weight: 2.15 g
  TG: *192 mg/dL

Reference: US8278268B2, “Combination therapy comprising glucose reabsorption inhibitors and PPAR modulators” (Ortho-McNeil Pharmaceutical, Inc., priority 2001, dated 2012)
